Data as given in ChEMBL document CHEMBL4334495, “Design and Biological Evaluation of m-Xylene Thioether-Stapled Short Helical Peptides Targeting the HIV-1 gp41 Hexameric Coiled-Coil Fusion Complex” (J Med Chem, 2019).
Calls of active or inactive are those of the source. The calls are words filed in the database; no cut-off is given here. Starred links: 1 amine or outer side, 2 acyl side, 3 side chain; linkers in the order of their positions; H or OH if unused. Positions of bridges follow the written chain, without caps; N, C: chain ends. Non-standard residues stand in square brackets, D forms with d. Residues, ends and D or L forms follow the SMILES beside them. ξ: configuration not given here. mXylylene = c1cc(C[*:1])cc(C[*:2])c1; ξhCys = NC(CCS)C(=O)O

How the values were obtained:
[1] = tested on: Human immunodeficiency virus 1; test: Synergistic antiviral activity against X4 tropic HIV-1 subtype-B 3B infected in human MT2 cells or CEMx174 5.25 M7 cells assessed as reduction in p24 Gag protein production by measuring combination index at 6:1 compound to HP23 ratio measured at 4 days post-infection by ELISA; assay type: functional, HIV-1 group M
[2] = tested on: Human immunodeficiency virus 1; test: Antiviral activity against X4 tropic HIV-1 subtype-B 3B infected in human MT2 cells or CEMx174 5.25 M7 cells assessed as reduction in p24 Gag protein production at 24:1 compound to HP23 ratio measured at 4 days post-infection by ELISA; assay type: functional, cell-based, HIV-1 group M; conditions: Human immunodeficiency virus 1, 3B, 96 h
[3] = tested on: Human immunodeficiency virus 1; test: Synergistic antiviral activity against T2635 resistant HIV1 LAI harboring Q66R mutant infected in human MT2 cells or CEMx174 5.25 M7 cells assessed as reduction in p24 Gag protein production by measuring combination index at 25:1 compound ratio measured at 4 days post infection by ELISA; assay type: functional, M:B_Lai
[4] = target: Envelope glycoprotein gp160 (Human immunodeficiency virus 1) (UniProt Q6QLK5); test: Binding affinity to HIV1 GP41 using GP41 NHR derived N36 peptide assessed as melting temperature at 10 uM incubated for 30 mins by CD spectroscopy
[5] = tested on: Human immunodeficiency virus 1; test: (§1) Ratio of EC50 for antiviral activity against T20 resistant HIV1 NL4-3 harboring with V38E/N42S mutant infected in human MT2 cells or CEMx174 5.25 M7 cells in absence of HP23 to EC50 for antiviral activity against T20 resistant HIV1 NL4-3 harboring with V38E/N42S mutant infected in human MT2 cells or CEMx174 5.25 M7 cells at 7000:1 compound to HP23 ratio; assay type: functional
[6] = tested on: Human immunodeficiency virus 1; test: as §1, with “T2635” for “T20”, “LAI” for “NL4-3”, “Q66R” for “with V38E/N42S”, “to” for “to EC50 for”, “12.5:1 ratio of” for “7000:1”, “HP23” for “HP23 ratio”; assay type: functional, M:B_Lai
[7] = tested on: Human immunodeficiency virus 1; test: Synergistic antiviral activity against T2635 resistant HIV1 LAI harboring Q66R mutant infected in human MT2 cells or CEMx174 5.25 M7 cells assessed as reduction in p24 Gag protein production by measuring combination index at 12.5:1 compound ratio measured at 4 days post infection by ELISA; assay type: functional, M:B_Lai
[8] = tested on: Human immunodeficiency virus 1; test: Synergistic antiviral activity against R5 tropic HIV-1 subtype-B Bal infected in human MT2 cells or CEMx174 5.25 M7 cells assessed as reduction in p24 Gag protein production by measuring combination index at 12:1 ratio of hCS6ERE to compound measured at 4 days post-infection by ELISA; assay type: functional, HIV-1 group M
[9] = tested on: Human immunodeficiency virus 1; test: Antiviral activity against T2635 resistant HIV1 LAI harboring Q66R mutant infected in human MT2 cells or CEMx174 5.25 M7 cells assessed as reduction in p24 Gag protein production at 25:1 ratio of compound to HP23 measured at 4 days post infection by ELISA; assay type: functional, organism-based, M:B_Lai
[10] = tested on: Human immunodeficiency virus 1; test: as §1, with “14000:1” for “7000:1”; assay type: functional
[11] = tested on: Human immunodeficiency virus 1; test: as §1, with “3500:1” for “7000:1”; assay type: functional
[12] = target: Envelope glycoprotein gp160 (Human immunodeficiency virus 1) (UniProt Q6QLK5); test: Synergistic inhibition of HIV1 gp41-induced cell-cell fusion between viral envelope expressing human HL2/3 cells to CD4/CCR5 receptor expressing TZM-bl cells assessed as combination index at 4:1 compound to HP23 ratio incubated for 6 hrs by luciferase reporter gene assay
[13] = tested on: Human immunodeficiency virus 1; test: (§2) Ratio of EC50 for antiviral activity against X4 tropic HIV-1 subtype-B 3B infected in human MT2 cells or CEMx174 5.25 M7 cells in absence of HP23 to EC50 for antiviral activity against X4 tropic HIV-1 subtype-B 3B infected in human MT2 cells or CEMx174 5.25 M7 cells at 6:1 compound to HP23 ratio; assay type: functional, HIV-1 group M
[14] = tested on: Human immunodeficiency virus 1; test: (§3) Synergistic antiviral activity against HIV1 NL4-3 infected in human MT2 cells or CEMx174 5.25 M7 cells assessed as reduction in p24 Gag protein production by measuring combination index at 5:1 compound to HP23 ratio measured at 4 days post-infection by ELISA; assay type: functional
[15] = target: Envelope glycoprotein gp160 (Human immunodeficiency virus 1) (UniProt Q6QLK5); test: Binding affinity to HIV1 GP41 using GP41 NHR derived N36 peptide at 500 uM incubated for 30 mins by size exclusion HPLC analysis
[16] = tested on: Human immunodeficiency virus 1; test: as §3, with “against T20 resistant” for “against”, “NL4-3 harboring with V38E/N42T mutant” for “NL4-3”, “300:1” for “5:1”; assay type: functional
[17] = tested on: Human immunodeficiency virus 1; test: Antiviral activity against R5 tropic HIV-1 subtype-B Bal infected in human MT2 cells or CEMx174 5.25 M7 cells assessed as reduction in p24 Gag protein production at 3:1 ratio of compound to HP23 measured at 4 days post-infection by ELISA; assay type: functional, cell-based, HIV-1 group M; conditions: Human immunodeficiency virus 1, Bal, 96 h
[18] = tested on: Human immunodeficiency virus 1; test: as §2, with “hCS6ERE” for “HP23”, “12:1 ratio of hCS6ERE to” for “6:1”, “compound” for “compound to HP23 ratio”; assay type: functional, HIV-1 group M
[19] = tested on: Human immunodeficiency virus 1; test: Antiviral activity against T2635 resistant HIV1 LAI harboring Q66R mutant infected in human MT2 cells or CEMx174 5.25 M7 cells assessed as reduction in p24 Gag protein production at 25:1 ratio of hCS6ERE to compound measured at 4 days post infection by ELISA; assay type: functional, organism-based, M:B_Lai
[20] = target: Envelope glycoprotein gp160 (Human immunodeficiency virus 1) (UniProt Q6QLK5); test: (§4) Ratio of EC50 for inhibition of HIV1 gp41-induced cell-cell fusion between viral envelope expressing human HL2/3 cells to CD4/CCR5 receptor expressing TZM-bl cells in absence of HP23 to EC50 for inhibition of HIV1 gp41-induced cell-cell fusion between viral envelope expressing human HL2/3 cells to CD4/CCR5 receptor expressing TZM-bl cells at 1:1 ratio of hCS6ERE to compound
[21] = tested on: Human immunodeficiency virus 1; test: Antiviral activity against HIV1 NL4-3 infected in human MT2 cells or CEMx174 5.25 M7 cells assessed as reduction in p24 Gag protein production at 20:1 hCS6ERE to compound ratio measured at 4 days post-infection by ELISA; assay type: functional, organism-based; conditions: Human immunodeficiency virus 1, NL4-3, 96 h
[22] = tested on: Human immunodeficiency virus 1; test: (§5) Ratio of EC50 for antiviral activity against T20 resistant HIV1 NL4-3 harboring with V38E/N42T mutant infected in human MT2 cells or CEMx174 5.25 M7 cells in absence of hCS6ERE to EC50 for Antiviral activity against T20 resistant HIV1 NL4-3 harboring with V38E/N42T mutant infected in human MT2 cells or CEMx174 5.25 M7 cells at 600:1 hCS6ERE to compound ratio; assay type: functional
[23] = tested on: Human immunodeficiency virus 1; test: as §5, with “T2635” for “T20”, “LAI” for “NL4-3”, “Q66R” for “with V38E/N42T”, “antiviral” for “EC50 for Antiviral”, “50:1 ratio of” for “600:1”, “compound” for “compound ratio”; assay type: functional, M:B_Lai
[24] = target: Envelope glycoprotein gp160 (Human immunodeficiency virus 1) (UniProt Q6QLK5); test: as §4, with “4:1” for “1:1”

Sequence of Envelope glycoprotein gp160 (Human immunodeficiency virus 1) (Q6QLK5 1-814): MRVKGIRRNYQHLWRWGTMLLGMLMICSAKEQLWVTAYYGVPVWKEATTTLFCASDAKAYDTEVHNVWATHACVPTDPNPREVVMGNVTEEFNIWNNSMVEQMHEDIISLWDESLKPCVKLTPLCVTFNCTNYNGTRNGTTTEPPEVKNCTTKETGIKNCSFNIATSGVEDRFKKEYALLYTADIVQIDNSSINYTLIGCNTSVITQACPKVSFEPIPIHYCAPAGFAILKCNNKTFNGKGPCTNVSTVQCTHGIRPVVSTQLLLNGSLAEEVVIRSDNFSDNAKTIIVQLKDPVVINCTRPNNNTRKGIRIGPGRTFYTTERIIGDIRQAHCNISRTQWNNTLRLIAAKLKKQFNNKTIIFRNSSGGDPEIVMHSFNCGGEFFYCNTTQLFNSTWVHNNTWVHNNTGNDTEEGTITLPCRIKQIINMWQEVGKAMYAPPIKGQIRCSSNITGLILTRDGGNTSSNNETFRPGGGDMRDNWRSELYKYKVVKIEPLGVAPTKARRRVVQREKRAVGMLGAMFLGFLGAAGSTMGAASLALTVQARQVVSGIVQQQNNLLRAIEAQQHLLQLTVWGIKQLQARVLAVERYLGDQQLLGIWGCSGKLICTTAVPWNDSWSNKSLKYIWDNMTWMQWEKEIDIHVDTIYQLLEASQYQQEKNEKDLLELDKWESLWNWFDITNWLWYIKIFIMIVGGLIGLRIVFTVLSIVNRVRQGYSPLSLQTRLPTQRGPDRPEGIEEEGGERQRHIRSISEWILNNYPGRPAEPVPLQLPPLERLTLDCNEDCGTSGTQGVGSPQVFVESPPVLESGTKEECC

CC[C@H](C)[C@H](NC(C)=O)C(=O)N[C@@H](CCC(=O)O)C(=O)N[C@@H](CCC(=O)O)C(=O)N[C@@H](CC(C)C)C(=O)N[C@H](C(=O)NC1CCSCc2cccc(c2)CSCCC(C(=O)N[C@@H](CCC(N)=O)C(=O)N[C@@H](CCC(N)=O)C(=O)N[C@@H](CCCNC(=N)N)C(=O)N[C@@H](CCCCN)C(=O)N[C@@H](CC(N)=O)C(=O)N[C@@H](CCC(=O)O)C(=O)N[C@@H](CCC(=O)O)C(=O)N[C@@H](C)C(=O)N[C@@H](CC(C)C)C(=O)N[C@@H](CCCNC(=N)N)C(=O)N[C@@H](CCC(=O)O)C(=O)N[C@@H](CC(C)C)C(N)=O)NC(=O)[C@H](CCC(N)=O)NC(=O)[C@H](C)NC(=O)[C@H](C)NC1=O)[C@@H](C)CC (some centres undefined) (Ac-IEELI[ξhCys]AAQ[ξhCys]QQRKNEEALREL-NH2; linker 6-10 via mXylylene)
CI [1]: 0.8
EC50 [2]: 17.3 nM
CI [3]: 0.8
Tm [4]: 57.6 °C
Ratio EC50 [5]: 2.7
Ratio EC50 [6]: 3.8
CI [7]: 0.7
CI [8]: 0.6
EC50 [9]: 39.5 nM
Ratio EC50 [10]: 2.2
Ratio EC50 [11]: 3.4
CI [12]: 0.6
Ratio EC50 [13]: 3.6
CI [14]: 0.4
Activity [15]: Active
CI [16]: 0.8
EC50 [17]: 4.1 nM

H-EMTWEEWEKKIEEYTKKIEEILK-OH
Ratio EC50 [18]: 2.8
EC50 [19]: 1.5 nM
Ratio EC50 [20]: 1
EC50 [21]: 0.7 nM
Ratio EC50 [22]: 5.1
Ratio EC50 [23]: 9.6
Ratio EC50 [24]: 6.2
